Results from patent US4382030A, “2-Acylaminomethyl-1,4-benzodiazepine derivatives and their salts, pharmaceutical compositions thereof and process for their preparation” (Kali-Chemie Pharma GmbH, priority 1979, dated 1983).

Assays:
[1] = tested on: rats (secondary arthritis pain, mycobacterium smegmae); assay: Arthritis Pain Test in Rats; format: in vivo; settings: po, rat, p.o., 3 hours after administration, protection in 50% of treated animals
Experimental: (§1) This analgesic activity has been evaluated in two pharmacological standard methods, the tail flick test in mice and the arthritis pain test in rats.
2. Arthritis Pain Test in Rats.
Male rats having a weight of from 160 to 180 g are anesthetized by small i.p. injection of 20 mg/kg of sodium pentobarbital and 0.1 ml of a suspension of mycobacterium smegmae (SI 043) in liquid paraffin (0.6 mg mycobacterium/0.1 ml of oil) are injected intracutaneously into the left rear paw. Fourteen days later when a marked secondary arthritis has developed in particular in the right rear paw, the effect of the test compound is evaluated. A control-reading is taken 30 minutes prior to administration of the test compound by bending the foot joint of the right rear paw three times and counting the number of squeakings. […] Three hours after oral administration of the test compound the bending of the joint is repeated. Animals which squeak only once or not at all are considered to be protected against pain. Between about 9 and 20 rats are used per dose and the ED50 (95% reliability) is determined according to the method of Litchfield and Wilcoxon (1949). The dose which provides protection in 50% of the treated animals is taken as ED50.

[2] = tested on: mice (tail flick, heat beam pain reaction); assay: Tail flick Test in Mice; format: in vivo; settings: sc, 0.5 h; mouse, s.c.; 30 minutes after administration; >75% increase of reaction time in 50% of animals
Experimental: as §1
3. Tail flick Test in Mice.
This test is carried out according to the method described by D'Amour and Smith (1941), yet fed male and female mice having a body weight of 16 to 25 g are used instead of rats. Thirty minutes prior to treatment with the test compound, each mouse is placed separately in a cylindrical container in such a manner that it cannot turn itself or move forward. Its tail is positioned in a narrow groove projecting out of the container. A certain point of the tail of each animal (about 35 mm beyond the root of the tail) is subjected to the heat beam of a lamp of known strength and temperature which is positioned directly under the tail. The number of seconds which pass before the mouse moves its tail out of the light beam is determined twice, once 30 minutes and once 15 minutes prior to subcutaneous administration of the test compound (10 mg/kg). Mice which show a reaction time differing more than 25% are eliminated from the test. The reaction time is again determined 15 minutes and 30 minutes after the treatment and an increase of the reaction period of more than 75% of the average values prior to treatment in the same animal is considered as showing an analgesic effect. The ED50 (95% reliability) of each test compound 30 minutes after administration is evaluated according to the method of Litchfield and Wilcoxon (1949). The dose which increases the reaction time as compared to the reaction time prior to treatment for more than 75% in 50% of the animals is considered as ED50.

SMILES | ED50 [1] | ED50 [2]
COc1ccc2c(c1)N(C)C(CNC(=O)c1ccccn1)CN=C2c1ccccc1 (centres unmarked) [Compound 30, 8-methoxy-1-methyl-2-picolinoylaminomethyl-5-phenyl-1H-2,3-dihydro-1,4-benzodiazepine] | > 32 mg/kg | 7 mg/kg
COc1ccc2c(c1)N(C)C(CNC(=O)c1ccc(Br)s1)CN=C2c1ccccc1F (centres unmarked) [Compound 46, 8-methoxy-1-methyl-2-[(5-bromothiophene-2-carbonyl)-aminomethyl]-5-(2-fluorophenyl)-1H-2,3-dihydro-1,4-benzodiazepine] | < 18 mg/kg | 5.6 mg/kg
COc1ccc2c(c1)N(C)C(CNC(=O)c1cccs1)CN=C2c1ccc(F)cc1 (centres unmarked) [Compound 47] | < 18 mg/kg | 3.2 mg/kg
CN1c2cc3c(cc2C(c2ccccc2)=NCC1CNC(=O)c1cccs1)OCO3 (centres unmarked) [Compound 24, 7,8-methylenedioxy-1-methyl-2-[(thiophene-2-carbonyl)-aminomethyl]-5-phenyl-1H-2,3-dihydro-1,4-benzodiazepine] | 10 mg/kg | 3.8 mg/kg
COc1ccc2c(c1)N(C)C(CNC(=O)c1sccc1C)CN=C2c1ccccc1 (centres unmarked) [Compound 23, 8-methoxy-1-methyl-2-[(3-methylthiophene-2-carbonyl)-aminomethyl]-5-phenyl-1H-2,3-dihydro-1,4-benzodiazepine] | 25 mg/kg | 7.2 mg/kg
CN1c2cc3c(cc2C(c2ccccc2)=NCC1CNC(=O)c1ccsc1)OCO3 (centres unmarked) [Compound 41, 7,8-methylenedioxy-1-methyl-2-[(thiophene-3-carbonyl)-aminomethyl]-5-phenyl-1H-2,3-dihydro-1,4-benzodiazepine] | 5.6 mg/kg | 2.1 mg/kg
CN1c2cc(F)ccc2C(c2ccccc2)=NCC1CNC(=O)c1ccoc1 (centres unmarked) [Compound 38, 8-fluoro-1-methyl-2-[(furane-3-carbonyl)-amino-methyl]-5-phenyl-1H-2,3-dihydro-1,4-benzodiazepine] | < 18 mg/kg | 0.32 mg/kg
COc1ccc2c(c1)N(C)C(CNC(=O)c1ccc(Br)s1)CN=C2c1ccc(F)cc1 (centres unmarked) [Compound 49, 8-methoxy-1-methyl-2-[(5-bromothiophene-2-carbonyl)-aminomethyl]-5-(4-fluorophenyl)-1H-2,3-dihydro-1,4-benzodiazepine] | < 18 mg/kg | > 5.6 mg/kg
CN1c2cc3c(cc2C(c2ccccc2)=NCC1CNC(=O)c1ccoc1)OCO3 (centres unmarked) [Compound 26, 7,8-methylenedioxy-1-methyl-2-[(furane-3-carbonyl)-aminomethyl]-5-phenyl-1H-2,3-dihydro-1,4-benzodiazepine] | < 5.6 mg/kg | 2 mg/kg
Cc1ccc(C(=O)NCC2CN=C(c3ccccc3)c3cc4c(cc3N2C)OCO4)s1 (centres unmarked) [Compound 32, 7,8-methylenedioxy-1-methyl-2-[(5-methylthiophene-2-carbonyl)-aminomethyl]-5-phenyl-1H-2,3-dihydro-1,4-benzodiazepine] | < 18 mg/kg | 5.6 mg/kg
COc1ccc2c(c1)N(C)C(CNC(=O)c1ccoc1)CN=C2c1ccccc1F (centres unmarked) [Compound 39, 8-methoxy-1-methyl-2-[(furane-3-carbonyl)-amino-methyl]-5-(2-fluorophenyl)-1H-2,3-dihydro-1,4-benzodiazepine] | < 10 mg/kg | 0.7 mg/kg
COc1ccc2c(c1)N(C)C(CNC(=O)c1cccnc1)CN=C2c1ccccc1 (centres unmarked) [Compound 29, 8-methoxy-1-methyl-2-nicotinoylaminomethyl-5-phenyl-1H-2,3-dihydro-1,4-benzodiazepine] | 30 mg/kg | 4 mg/kg
CN1c2ccccc2C(c2ccccc2)=NCC1CNC(=O)c1cccn1C (centres unmarked) [Compound 36, 1-methyl-2-[(1-methylpyrrol-2-carbonyl)-aminomethyl]-5-phenyl-1H-2,3-dihydro-1,4-benzodiazepine] | > 18 mg/kg | 2.1 mg/kg
COc1ccc2c(c1)N(C)C(CNC(=O)c1cccs1)CN=C2c1ccccc1F (centres unmarked) [Compound 40, 8-methoxy-1-methyl-2-[(thiophene-2-carbonyl)-aminomethyl]-5-(2-fluorophenyl)-1H-2,3-dihydro-1,4-benzodiazepine] | < 18 mg/kg | 1.2 mg/kg
COc1ccc2c(c1)N(C)C(CNC(=O)c1ccoc1)CN=C2c1ccc(F)cc1 (centres unmarked) [Compound 34, 8-methoxy-1-methyl-2-[(furane-3-carbonyl)-aminomethyl]-5-(4-fluorophenyl)-1H-2,3-dihydro-1,4-benzodiazepine] | 5.6 mg/kg | 2.1 mg/kg
O=C(NCC1CN=C(c2ccccc2)c2ccccc2N1)c1cccs1 (centres unmarked) [Compound 28, 2-[(thiophene-2-carbonyl)-aminomethyl]-5-phenyl-1H-2,3-dihydro-1,4-benzodiazepine] | > 32 mg/kg | 4.2 mg/kg
COc1ccc2c(c1)N(C)C(CNC(=O)c1ccoc1)CN=C2c1cccc(F)c1 (centres unmarked) [Compound 42, 8-methoxy-1-methyl-2-[(furane-3-carbonyl)-aminomethyl]-5-(3-fluorophenyl)-1H-2,3-dihydro-1,4-benzodiazepine] | < 18 mg/kg | 5.6 mg/kg
CN1c2cc(Cl)ccc2C(c2ccccc2)=NCC1CNC(=O)c1ccoc1 (centres unmarked) [Compound 37, 8-chloro-1-methyl-2-[(furane-3-carbonyl)-aminomethyl]-5-phenyl-1H-2,3-dihydro-1,4-benzodiazepine] | > 18 mg/kg | 1.2 mg/kg
CN1c2cc3c(cc2C(c2ccccc2)=NCC1CNC(=O)c1ccco1)OCO3 (centres unmarked) [Compound 25] | < 32 mg/kg | < 5.6 mg/kg
COc1ccc2c(c1)N(C)C(CNC(=O)c1ccc(Br)s1)CN=C2c1ccccc1 (centres unmarked) [Compound 27, 8-methoxy-1-methyl-2-[(5-bromothiophene-2-carbonyl)-aminomethyl]-5-phenyl-1H-2,3-dihydro-1,4-benzodiazepine] | < 32 mg/kg | > 5.6 mg/kg
CN1c2ccccc2C(c2ccccc2)=NCC1CNC(=O)c1ccoc1 (centres unmarked) [Compound 22, 1-methyl-2-[(furane-3-carbonyl)-aminomethyl]-5-phenyl-2,3-dihydro-1,4-benzodiazepine] | 14 mg/kg | 0.44 mg/kg
Cc1ccc(C(=O)NCC2CN=C(c3ccccc3)c3ccc(F)cc3N2C)s1 (centres unmarked) [Compound 43, 8-fluoro-1-methyl-2-[(5-methylthiophene-2-carbonyl)-aminomethyl]-5-phenyl-1H-2,3-dihydro-1,4-benzodiazepine] | < 18 mg/kg | 5.6 mg/kg
COc1ccc2c(c1)N(C)C(CNC(=O)c1cccn1C)CN=C2c1ccccc1 (centres unmarked) [Compound 33, 8-methoxy-1-methl-2-[(1-methylpyrrol-2-carbonyl)-aminomethyl]-5-phenyl-1H-2.3-dihydro-1,4-benzodiazepine] | < 18 mg/kg | 1 mg/kg
CN1c2cc3c(cc2C(c2ccccc2)=NCC1CNC(=O)c1ccoc1)OCCO3 (centres unmarked) [Compound 44, 7,8-ethylenedioxy-1-methyl-2-[(furane-3-carbonyl)-aminomethyl]-5-phenyl-1H-2,3-dihydro-1,4-benzodiazepine] | < 18 mg/kg | > 5.6 mg/kg
COc1ccc2c(c1)N(C)C(CNC(=O)c1ccc(C)o1)CN=C2c1ccccc1 (centres unmarked) [Compound 31, 8-methoxy-1-methyl-2-[(5-methylfurane-2-carbonyl)-aminomethyl]-5-phenyl-1H-2,3-dihydro-1,4-benzodiazepine] | 30 mg/kg | 4.4 mg/kg
Cc1ccc2c(c1)C(c1ccccc1F)=NCC(CNC(=O)c1ccoc1)N2C (centres unmarked) [Compound 45, 1,7-dimethyl-2-[(furane-3-carbonyl)-aminomethyl]-5-(2-fluorophenyl)-1H-2,3-dihydro-1,4-benzodiazepine] | < 18 mg/kg | 3.8 mg/kg
COc1ccc2c(c1)N(C)C(CNC(=O)c1ccoc1)CN=C2c1ccccc1C(F)(F)F (centres unmarked) [Compound 35, 8-methoxy-1-methyl-2-[(furane-3-carbonyl)-aminomethyl]-5-(2-trifluoromethylphenyl)-1H-2,3-dihydro-1,4-benzodiazepine] | < 18 mg/kg | 1 mg/kg
COc1ccc2c(c1)N(C)C(CNC(=O)c1ccc(Br)s1)CN=C2c1cccc(F)c1 (centres unmarked) [Compound 48, 8-methoxy-1-methyl-2-[(5-bromothiophene-2-carbonyl)-aminomethyl]-5-(3-fluorophenyl)-1H-2,3-dihydro-1,4-benzodiazepine] | < 18 mg/kg | > 5.6 mg/kg
